Laboratory results as given in US11241013B2, “Benzimidazole compounds as agricultural chemicals” (REDAG CROP PROTECTION LTD, priority 2017, dated 2022).

Key:
Assay type in all cases: cell-based
Phytophthora cactorum = experiment: 96 well plate test; parameters: key: G: no control detected at 20 ppm; F: an EC50 of ≥20 ppm; an EC50 of less than 20 ppm; conditions: 96 well plate assay, agar amended to 20, 2, 0.2 and 0.02 ppm, assessed after 2 to 3 days
Method: Compounds were screened in 96 well plates with 10 compounds per plate. Each compound was screened using agar amended to 20, 2, 0.2 and 0.02 ppm, with proline at 50 and 10 ppm and 0.2% DMSO used as controls. Each test concentration and standard was replicated twice on a plate. Compounds were screened against Phytophthora cactorum. The agar used in the test is a 1% potato dextrose agar. 1000 spores/mL agar were added to the appropriate agar. A ×10 stock solution in 2% DMSO was produced for each dose i.e. 200, 20, 2 and 0.2 ppm, and 10 μl of this added to the appropriate wells on the plate. An equivalent amount of 2% DMSO and proline stock at 500 and 100 ppm were added for the controls. To each well 90 μl of the appropriate agar spore suspension was added to give the required final well concentrations. Plates were incubated at room temperature (18° C.) and assessed after 2 to 3 days. The amount of pathogen growth in each well was compared to the DMSO controls and an EC50 concentration was calculated. The results are provided in Table 1 in which H represents no control detected at 20 ppm, G represents no control detected at 2 ppm (where the highest test concentration in the assay was 2 ppm), F represents an EC50 of ≥20 ppm, E represents an EC50 of less than 20 ppm.

Pythium ultimum = experiment: Amended agar assay; parameters: key to % control Pythium ultimum 2 ppm / % control Pythium ultimum 20 ppm: D: no control detected at this concentration; C: up to 50% control; B: from 50 to 99% control; A: a control of greater than 99%, i.e. no detectable colony growth; conditions: amended PDA agar, % reduction in colony growth vs control plate, 18° C.; for inhibition of growth at 2 ppm / inhibition of growth at 20 ppm: Globisporangium ultimum
Method: (§1) Testing was carried out on potato dextrose agar (PDA) amended with each compound at a test concentration of typically 20 ppm or 2 ppm. Amended agar was poured into three replicate 9 cm petri dishes. Each replicate dish was inoculated in the centre with a 5 mm agar plug taken from the leading edge of a culture aged between 2 and 7 days old; the age of the culture was dependant on the growth rate of the pathogen being tested. The test pathogens were Pythium ultimum and Phytophthora cinnamomi. Plates were incubated at 18° C. and the diameter of each colony measured before growth on the fastest growing plate reached the plate edge. This varied between 2 and 7 days depending on the growth rate of test pathogens. The % reduction in colony growth compared to the control plate was calculated for each pathogen. The results are provided in Table 1, in which D represents no control detected at this concentration; C represents up to 50% control; B from 50 to 99% control; and A represents a control of greater than 99%, i.e. no detectable colony growth.
(§2) Alternatively, or in addition, the same assay was conducted at descending test concentrations with 5-fold dilutions typically down to 0.032 ppm though sometimes as low as 0.00026 ppm, and an EC50 (the concentration at which 50% control would be achieved) was determined. The results are provided in Table 1 in which G represents no control detected at 20 ppm, F represents an EC50 of ≥20 ppm and E represents an EC50 of less than 20 ppm.

Phytophthora cinnamomi = experiment: Amended agar assay; parameters: key to % control Phytophthora cinnamomi 20 ppm: D: no control detected at this concentration; C: up to 50% control; B: from 50 to 99% control; A: a control of greater than 99%, i.e. no detectable colony growth; conditions: amended PDA agar, 20 ppm, % reduction in colony growth vs control plate, 18° C.
Method: as §1, §2

| SMILES | EC50 Phytophthora spp. (Phytophthora cactorum) (Phytophthora cactorum) | % control Pythium ultimum 2 ppm (Pythium ultimum) | inhibition of growth at 2 ppm (Pythium ultimum) | inhibition of growth at 20 ppm (Pythium ultimum) | % control Phytophthora cinnamomi 20 ppm (Phytophthora cinnamomi) | % control Pythium ultimum 20 ppm (Pythium ultimum) |
| --- | --- | --- | --- | --- | --- | --- |
| CN(C)c1cccc(COc2nc3ccccc3n2-c2nnnn2C)n1 [Example 49, N,N-Dimethyl-6-(((1-(1-methyl-1H-tetrazol-5-yl)-1H-benzo[d]imidazol-2-yl)oxy)methyl)pyridin-2-amine] | H | D |  |  |  |  |
| Cn1nnnc1-n1c(OCc2ccncc2)nc2ccccc21 [Example 19] | H |  | < 50% |  |  |  |
| Cn1nnnc1-n1c(OCc2cnccn2)nc2ccccc21 [Example 5] | H | D |  | < 50% |  |  |
| Clc1cncnc1-c1c(OCc2ccccn2)[nH]c2ccccc12 [Example 33, 3-(5-Chloropyrimidin-4-yl)-2-(pyridin-2-ylmethoxy)-1H-indole] |  |  |  | < 50% | B (from 50 to 99% control) |  |
| COCc1cccc(COc2nc3c(Cl)cccc3n2-c2nnnn2C)n1 [Example 72] | H |  | < 50% |  |  |  |
| Cn1nnnc1-n1c(OCc2cccnc2)nc2ccccc21 [Example 18] | H |  | < 50% |  |  |  |
| CSc1cccc(COc2nc3ccccc3n2-c2nnnn2C)n1 [Example 54] | H | D |  |  |  |  |
| Cc1cccnc1-n1c(OCc2ccccn2)nc2ccccc21 [Example 26] |  |  |  |  | D | D |
| Cn1nnnc1-n1c(OCc2cccc(NS(C)(=O)=O)n2)nc2ccccc21 [Example 31, N-(6-(((1-(1-Methyl-1H-tetrazol-5-yl)-1H-benzo[d]imidazol-2-yl)oxy)methyl)pyridin-2-yl)methanesulfonamide] |  |  |  |  | B (from 50 to 99% control) | D |
| Cn1nnnc1-n1c(OCc2cccc(-c3ccccc3)n2)nc2ccccc21 [Example 32, 1-(1-Methyl-1H-tetrazol-5-yl)-2-((6-phenylpyridin-2-yl)methoxy)-1H-benzo[d]imidazole] | H |  | < 50% |  |  |  |
| COCCCOc1ccnc(COc2nc3ccccc3n2-c2nnnn2C)c1C [Example 15] | H |  | < 50% | > 99% |  |  |
| CC(C)CCOc1cccc(COc2nc3ccccc3n2-c2nnnn2C)n1 [Example 53] | H | D |  |  |  |  |
| COc1cccc(COc2nc3ccccc3n2-c2nnnn2C)n1 [Example 52] | H | D |  |  |  |  |
| Cn1nnnc1-n1c(OCc2ccc(N)cn2)nc2ccccc21 [Example 57] | H | D |  |  |  |  |
| Cn1nnnc1-n1c(OCc2cccnn2)nc2ccccc21 [Example 21] | H | D |  | 50 to 99% |  |  |
| Cn1nnnc1-n1c(OCc2cccc(S(C)(=O)=O)n2)nc2ccccc21 [Example 58, 1-(1-Methyl-1H-tetrazol-5-yl)-2-((6-(methylsulfonyl)pyridin-2-yl)methoxy)-1H-benzo[d]imidazole] | H | D |  |  |  |  |
| Cn1nnnc1-n1c(OCCc2ccccn2)nc2ccccc21 [Example 25] | H |  | < 50% |  |  |  |
| Cn1nnnc1-n1c(OCc2ncccn2)nc2ccccc21 [Example 2] | H |  |  |  |  | D |
| Nc1cccc(COc2nc3ccccc3n2-c2ncncc2Cl)n1 [Example 9] | H |  | < 50% |  |  |  |
| Cn1nnnc1-n1c(COc2ccccn2)nc2ccccc21 [Example 34, 1-(1-Methyl-1H-tetrazol-5-yl)-2-((pyridin-2-yloxy)methyl)-1H-benzo[d]imidazole] | H | D |  |  |  |  |
